Test results reported in paper PMC7755165 (Xenobiotica; the fate of foreign compounds in biological …, 2019).
Where two headings read alike, the source gives them in different places.

Key:
[1] = system: single-donor human liver microsomes; details: donor (CYP2C19*1/*1); (+)-N-3-benzylnirvanol 5 μM; meperidine 10 μM, 10 min
recombinant CYP3A4 [2] = target: T1, recombinant CYP3A4 (Homo sapiens, UniProt P08684); test: Kinetic assay for meperidine N-demethylation by recombinant P450
in vitro [3] = details: human, pooled human liver microsomes, pH 7.4
CYP2B6 [4] = target: T2, CYP2B6 (Homo sapiens, UniProt P20813); details: ref Ramírez et al., (2004); cited from earlier work
T2 sequence (P20813 1-491): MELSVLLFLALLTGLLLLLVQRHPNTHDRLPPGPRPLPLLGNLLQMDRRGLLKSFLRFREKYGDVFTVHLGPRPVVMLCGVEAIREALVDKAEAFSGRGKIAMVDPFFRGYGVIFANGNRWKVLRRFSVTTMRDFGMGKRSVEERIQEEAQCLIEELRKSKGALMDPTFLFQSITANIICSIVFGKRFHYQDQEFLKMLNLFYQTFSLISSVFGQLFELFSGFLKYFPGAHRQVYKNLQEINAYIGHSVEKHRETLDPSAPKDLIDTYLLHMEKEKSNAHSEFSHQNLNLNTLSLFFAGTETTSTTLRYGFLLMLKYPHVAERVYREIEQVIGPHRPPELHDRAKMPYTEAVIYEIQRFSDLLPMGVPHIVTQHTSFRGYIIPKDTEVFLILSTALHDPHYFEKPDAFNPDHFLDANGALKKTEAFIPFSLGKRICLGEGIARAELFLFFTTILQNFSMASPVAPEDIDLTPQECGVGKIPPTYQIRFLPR

recombinant CYP2C19 = recombinant CYP2C19 (Homo sapiens, UniProt P33261); details: ref Ramírez et al., (2004); cited from earlier work
recombinant CYP2C19, sequence (P33261 whole entry): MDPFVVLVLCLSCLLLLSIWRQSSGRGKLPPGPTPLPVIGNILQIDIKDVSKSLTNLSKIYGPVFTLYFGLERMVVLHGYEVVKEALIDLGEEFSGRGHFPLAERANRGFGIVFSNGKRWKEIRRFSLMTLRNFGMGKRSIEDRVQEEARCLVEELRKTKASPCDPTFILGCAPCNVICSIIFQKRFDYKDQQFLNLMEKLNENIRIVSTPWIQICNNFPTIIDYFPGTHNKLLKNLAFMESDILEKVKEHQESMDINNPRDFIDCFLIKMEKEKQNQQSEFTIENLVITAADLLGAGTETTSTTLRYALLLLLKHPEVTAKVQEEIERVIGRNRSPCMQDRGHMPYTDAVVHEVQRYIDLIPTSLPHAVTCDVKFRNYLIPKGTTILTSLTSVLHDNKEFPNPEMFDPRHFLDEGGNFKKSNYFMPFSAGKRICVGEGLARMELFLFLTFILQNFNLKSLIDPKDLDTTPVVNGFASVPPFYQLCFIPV

CYP2B6 [5] = target: T2, CYP2B6; test: in vitro; details: recombinant CYP2B6, pH 7.4
recombinant CYP3A4 [6] = target: T1, recombinant CYP3A4; details: cited from earlier work
in vitro [7] = details: human, pooled human liver microsomes
[8] = cited from earlier work; for half-life: ref Clark et al., 1995

T1 sequence (P08684 2-503 limits assumed): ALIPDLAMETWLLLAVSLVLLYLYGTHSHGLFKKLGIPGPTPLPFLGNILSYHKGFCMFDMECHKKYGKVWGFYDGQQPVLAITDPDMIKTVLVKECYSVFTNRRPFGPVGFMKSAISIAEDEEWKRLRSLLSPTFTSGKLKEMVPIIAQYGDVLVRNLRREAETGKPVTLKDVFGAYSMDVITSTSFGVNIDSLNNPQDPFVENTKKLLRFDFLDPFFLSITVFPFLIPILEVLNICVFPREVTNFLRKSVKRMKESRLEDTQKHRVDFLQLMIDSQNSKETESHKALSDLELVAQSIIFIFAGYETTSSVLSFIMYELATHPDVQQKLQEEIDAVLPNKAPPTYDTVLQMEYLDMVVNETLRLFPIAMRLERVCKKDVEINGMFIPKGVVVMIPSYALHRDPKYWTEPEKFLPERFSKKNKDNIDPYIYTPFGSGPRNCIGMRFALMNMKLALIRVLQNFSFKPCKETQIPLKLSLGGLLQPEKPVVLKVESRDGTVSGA

CCC1(c2ccccc2)NC(=O)N(Cc2ccccc2)C1=O (single isomer, unassigned; (+)) [benzylnirvanol, (+)-N-3-benzylnirvanol]
reduction of normeperidine formation compared to vehicle control [1]: < 20%

CCOC(=O)C1(c2ccccc2)CCN(C)CC1 [meperidine, Meperidine]
Percent Contribution to meperidine N-demethylation (recombinant CYP3A4 [2]; Approach 1 (Rowland-Yeo et al. 2004 abundances)): 16%
Percent Contribution to meperidine N-demethylation (recombinant CYP3A4 [2]; Approach 2 (Achour et al. 2014 abundances)): 9%
Percent Contribution to meperidine N-demethylation (recombinant CYP3A4 [2]; Approach 3 (Rodrigues 1999 abundances)): 5%
estimated percent P450 contribution (fm, P450) for meperidine N-demethylation (recombinant CYP3A4 [2]; range over three sets of reported P450 abundances): 5–16%
Km at 10 min (in vitro [3]): 622 ± 63 µM
relative P450 contribution for normeperidine formation (CYP2B6 [4]): 57%
relative P450 contribution for normeperidine formation (recombinant CYP2C19): 15%
Km at 10 min (CYP2B6 [5]): 262 ± 59 µM
relative P450 contribution for normeperidine formation (recombinant CYP3A4 [6]; CYP3A4, ref Ramírez et al., (2004)): 28%
catalytic efficiency for meperidine N-demethylation (recombinant CYP3A4 [6]; recombinant CYP3A4, ref Ramirez et al. (2004)): 0.07 min⁻¹ µM⁻¹
Km (in vitro [7]): 1600 µM
half-life ([8]; patients with normal liver function): 2.5 to 4 h
parent compound excreted in urine ([8]; ref Burns et al., 1955, Yeh et al., 1981): 5%

CCOC(=O)C1(c2ccccc2)CCNCC1 [normeperidine]
half-life ([8]; at therapeutic doses): 14 to 21 h
half-life ([8]; patients with renal insufficiency): exceed 34 hours
